Data set [1] can be described thus: isomerization / stability of 9,12-epoxy isomers. Type of data set: physicochemical. The source says:
As previously noted, Beckmann rearrangement of oxime (III) under anhydrous conditions leads to a product mixture comprised of the 6,9- and 9,12-bridged iminoethers (VI) and (VII). The 9,12-bridged product, which is formed by internal trapping of the intermediate nitrilium species by the hydroxyl group at C-12, is initially isolated as a mixture of major and minor forms that are isomeric about the imino double bond. The initial mixture of isomers equilibrates at room temperature, both in solution or on storing as a crude foam, to approximately a 1:1 mixture of isomers. The first-formed, major isomer can be isolated from the mixture by crystallization from nitromethane solution.
A solution of the mixture of 9,12-epoxy isomers in nitromethane (2 mL) deposited a large, crystalline mass on standing at room temperature for several days. The mixture was diluted with nitromethane (10 mL) and filtered to remove the solid portion, which was washed with nitromethane (2 mL) and dried under high vacuum. The white solid thus obtained (0.9 g) was shown by ^1 H NMR spectroscopy to be the major 9,12-epoxy isomer which is initially formed in the Beckmann rearrangement reaction.

Data set [2] deals with Enterococcus faecalis MB 5407. Put plainly: MIC, liquid turbidimetric microtiter method. Particulars: MB5407, broth media. Type of data set: cell-based. The source says:
(§1) The compounds of formula (II) show antibacterial activity against a range of aerobic Gram positive and negative bacteria, as shown in the following Table. The assay employs a liquid turbidimetric microtiter method for determination of the minimum inhibitory concentration (MIC) in broth media. […] The MIC is generally not an absolute value but rather a concentration range that falls within a two-fold dilution limit. Generally twelve two-fold dilutions of the test compound are employed with the initial concentration set at 128 mcg/ml.

The subject of data set [3] is Enterococcus faecium MB 5416. Kind of data set: MIC, liquid turbidimetric microtiter method. Type of data set: cell-based. Particulars: MB5416, broth media.
Excerpt: as §1

The next data set relates to Escherichia coli MB 2884. Put plainly: MIC, liquid turbidimetric microtiter method. Type of data set: cell-based. As to conditions: MB2884, broth media.
Excerpt: as §1

The next data set has as its system Escherichia coli MB 4926. Kind of data set: MIC, liquid turbidimetric microtiter method. As to conditions: MB4926, broth media. Type of data set: cell-based.
Excerpt: as §1

Data set [4] deals with Klebsiella pneumoniae MB 4005. Kind of data set: MIC, liquid turbidimetric microtiter method. Particulars: MB4005, broth media. Type of data set: cell-based.
Excerpt: as §1

Data set [5] concerns Pseudomonas stutzeri MB 1231. Kind of data set: MIC, liquid turbidimetric microtiter method. Format: cell-based. As to conditions: Stutzerimonas stutzeri, MB1231, broth media.
Excerpt: as §1

The subject of data set [6] is Staphylococcus aureus MB 2865. Put plainly: MIC, liquid turbidimetric microtiter method. Type of data set: cell-based. As to conditions: MB2865, broth media.
Excerpt: as §1

Data set [7] concerns Staphylococcus epidermidis MB 5414. Put plainly: MIC, liquid turbidimetric microtiter method. Format: cell-based. As to conditions: MB5414, broth media.
Excerpt: as §1

Data set [8] has as its system Staphylococcus haemolyticus MB 5412. Kind of data set: MIC, liquid turbidimetric microtiter method. Particulars: MB5412, broth media. Type of data set: cell-based.
Excerpt: as §1

Data set [9] has as its system Steptococcus pneumoniae CL 2883. Put plainly: MIC, liquid turbidimetric microtiter method. Particulars: broth media. Format: cell-based.
Excerpt: as §1

Data set [10] concerns Streptococcus agalactiae CL 1343. Kind of data set: MIC, liquid turbidimetric microtiter method. Particulars: CL1343, broth media. Type of data set: cell-based.
Excerpt: as §1

Data set [11] has as its system Streptococcus pyogenes MB 2874. Put plainly: MIC, liquid turbidimetric microtiter method. Format: cell-based. Particulars: MB2874, broth media.
Excerpt: as §1

Data set [12] concerns Streptococcus pyogenes MB 5406. Kind of data set: MIC, liquid turbidimetric microtiter method. Type of data set: cell-based. Particulars: MB5406, broth media.
Excerpt: as §1

Data set [13] has as its system Streptococcus viridans CL 2943. Put plainly: MIC, liquid turbidimetric microtiter method. Format: cell-based. As to conditions: CL2943, broth media.
Excerpt: as §1

Data set [14] relates to Yersinia enterocoltica CL 1598. Put plainly: MIC, liquid turbidimetric microtiter method. Format: cell-based. As to conditions: CL1598, broth media.
Excerpt: as §1

Experimental findings from patent publication US5189159A, “8a-AZA-8a-homoerythromycin cyclic iminoethers” (Merck & Co., Inc., priority 1992, dated 1993) are described below.

Values after ≈ are worked out from the molar mass of the structure shown. A value given as a limit tells only on which side of the number the result lay.

`CC[C@H]1OC(=O)[C@H](C)[C@@H](O[C@H]2C[C@@](C)(OC)[C@@H](O)[C@H](C)O2)[C@H](C)[C@@H](O[C@@H]2O[C@H](C)C[C@H](N(C)C)[C@H]2O)[C@](C)(O)C[C@@H](C)N=C2O[C@@]1(C)[C@H](O)[C@H]2C` (single isomer, unassigned; isomer 9) [crystalline isomer, 9-deoxo-12-deoxy-9,12-epoxy-8a,9-didehydro-8a-aza-8a-homoerythromycin A]: the solid state stability result in [1] was “stable in the solid state”.

In the case of `CC[C@H]1OC(=O)[C@H](C)[C@@H](O[C@H]2C[C@@](C)(OC)[C@@H](O)[C@H](C)O2)[C@H](C)[C@@H](O[C@@H]2O[C@H](C)C[C@H](N(C)C)[C@H]2O)[C@@]2(C)C[C@@H](C)N=C(O2)[C@H](C)[C@@H](O)[C@]1(C)O` [(VI), 9-Deoxo-6-deoxy-6,9-epoxy-8a,9-didehydro-8a-aza-8a-homoerythromycin A], the MIC is 32 µg/mL (≈ 43.8 µM) in data set [2]; 8 µg/mL (≈ 10.9 µM) in data set [3]; 128 µg/mL (≈ 175 µM) against Escherichia coli MB 2884; 8 µg/mL (≈ 10.9 µM) in the data set with Escherichia coli MB 4926; over 128 µg/mL in data set [4]; 0.5 µg/mL (≈ 0.684 µM) in data set [5]. In addition, the minimal inhibitory concentration (MIC) stood at 16 µg/mL (≈ 21.9 µM) in data set [6]; 32 µg/mL (≈ 43.8 µM) in [7]; 8 µg/mL (≈ 10.9 µM) in data set [8]; 0.5 µg/mL (≈ 0.684 µM) in [9]; 1 µg/mL (≈ 1.37 µM) in data set [10]; 1 µg/mL (≈ 1.37 µM) in [11]. Further, the MIC in [12] came out at 128 µg/mL (≈ 175 µM); in [13] it was 16 µg/mL (≈ 21.9 µM); in data set [14], 128 µg/mL (≈ 175 µM).

In the case of `CC[C@H]1OC(=O)[C@H](C)[C@@H](O[C@H]2C[C@@](C)(OC)[C@@H](O)[C@H](C)O2)[C@H](C)[C@@H](O[C@@H]2O[C@H](C)C[C@H](N(C)C)[C@H]2O)[C@](C)(O)C[C@@H](C)N=C2O[C@@]1(C)[C@H](O)[C@H]2C` [(VII), 9-Deoxo-12-deoxy-9,12-epoxy-8a,9-didehydro-8a-aza-8a-homoerythromycin A], the MIC was over 128 µg/mL in data set [2]; 16 µg/mL (≈ 21.9 µM) in [3]; 128 µg/mL (≈ 175 µM) in the data set with Escherichia coli MB 2884; 32 µg/mL (≈ 43.8 µM) against Escherichia coli MB 4926; over 128 µg/mL in data set [4]; 2 µg/mL (≈ 2.74 µM) in data set [5]. In addition, the MIC in data set [6] was determined as 16 µg/mL (≈ 21.9 µM); in data set [7], 16 µg/mL (≈ 21.9 µM); in data set [8] it was 32 µg/mL (≈ 43.8 µM); in data set [9], 4 µg/mL (≈ 5.47 µM); in data set [10], 4 µg/mL (≈ 5.47 µM); in data set [11], 2 µg/mL (≈ 2.74 µM). For the same molecule, the MIC in data set [12] was over 128 µg/mL; in data set [13] it was 4 µg/mL (≈ 5.47 µM).

What is called MIC is the smallest concentration in the dilution series that meets the test's criterion for growth inhibition. Low values mean inhibition by little substance, high ones a need for much substance.
